According to ChEMBL document CHEMBL1201862, “PubChem BioAssay data set” (2004):
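Following 48 hours of exposure in 96-well plates, responses at five concentrations were used to interpolate endpoints linearly. At the GI50, growth is halved.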 The source made the active and inactive calls. Cut-off read from the data, not from the text of the source: active = GI50 up to about 1.1 µM and inactive = higher.

How the values were obtained:
Assay in all cases: NCI anticancer screen, dose series, 48 h
ACHN = test system: ACHN
HOP-62 = test system: HOP-62
K562 = test system: K562
LOX IMVI = test system: LOX IMVI
M14 = test system: M14
Malme-3M = test system: Malme-3M
NCI-H23 = test system: NCI-H23
OVCAR-3 = test system: OVCAR-3
RXF 393 = test system: RXF 393
SF-295 = test system: SF-295
SF-539 = test system: SF-539
SK-MEL-28 = test system: SK-MEL-28
SK-MEL-2 = test system: SK-MEL-2
SK-OV-3 = test system: SK-OV-3
SN12C = test system: SN12C
SNB-19 = test system: SNB-19
SW-620 = test system: SW-620
TK-10 = test system: TK-10
UACC-257 = test system: UACC-257
HL-60 = test system: HL-60

Measured: GI50

COC(=O)C(C(=O)C(=O)Nc1c(C)cccc1C(C)(C)C)c1nc2ccc(Cl)cc2nc1O (stereo unspecified)
inactive: ACHN > 100 µM | HOP-62 > 100 µM | K562 > 100 µM | LOX IMVI > 100 µM | M14 > 100 µM | Malme-3M > 100 µM | NCI-H23 > 100 µM | OVCAR-3 > 100 µM | RXF 393 > 100 µM | SF-295 > 100 µM | SF-539 > 100 µM | SK-MEL-28 > 100 µM | SK-MEL-2 > 100 µM | SK-OV-3 > 100 µM | SN12C > 100 µM | SNB-19 86.5 µM | SW-620 > 100 µM | TK-10 > 100 µM | UACC-257 > 100 µM

CC[C@@H](C)[C@H](NC(=O)[C@H](Cc1ccccc1)NCC(F)(F)F)C(=O)OC(C)(C)C
inactive: ACHN > 100 µM | HL-60 > 100 µM | HOP-62 > 100 µM | K562 > 100 µM | LOX IMVI > 100 µM | M14 > 100 µM | Malme-3M > 100 µM | NCI-H23 > 100 µM | OVCAR-3 89.9 µM | RXF 393 42 µM | SF-295 > 100 µM | SK-MEL-28 > 100 µM | SK-OV-3 > 100 µM | SN12C > 100 µM | SNB-19 > 100 µM | SW-620 > 100 µM | TK-10 > 100 µM | UACC-257 81.5 µM

COc1ccccc1/N=N/C(=N/NC(=O)c1ccc(C)cc1)c1ccc(N(CCC#N)CCC#N)cc1OC
inactive: ACHN 19.6 µM | HL-60 10.8 µM | HOP-62 40.5 µM | K562 31.3 µM | LOX IMVI 33.4 µM | M14 29.4 µM | Malme-3M 38.1 µM | NCI-H23 32.4 µM | OVCAR-3 29 µM | RXF 393 22.9 µM | SF-295 41 µM | SK-MEL-28 36 µM | SK-MEL-2 19.8 µM | SK-OV-3 37.1 µM | SN12C 28.3 µM | SNB-19 30.8 µM | SW-620 38.1 µM | TK-10 68.5 µM | UACC-257 38.3 µM

O=C(Cc1ccccc1)NN1C(=O)C(Cl)C1c1ccc(Cl)cc1 (stereo unspecified)
inactive: ACHN > 100 µM | HL-60 92.7 µM | HOP-62 > 100 µM | K562 72.9 µM | LOX IMVI > 100 µM | M14 > 100 µM | Malme-3M > 100 µM | NCI-H23 > 100 µM | OVCAR-3 > 100 µM | RXF 393 > 100 µM | SF-295 > 100 µM | SK-MEL-28 > 100 µM | SK-MEL-2 > 100 µM | SK-OV-3 > 100 µM | SN12C > 100 µM | SNB-19 69.8 µM | SW-620 > 100 µM | TK-10 > 100 µM | UACC-257 86.3 µM

CC(=O)C(C(=N)C#N)C(=O)Nc1ccccc1 (stereo unspecified)
inactive: ACHN > 100 µM | HOP-62 > 100 µM | K562 > 100 µM | LOX IMVI > 100 µM | M14 > 100 µM | Malme-3M > 100 µM | NCI-H23 > 100 µM | OVCAR-3 > 100 µM | RXF 393 > 100 µM | SF-295 > 100 µM | SF-539 > 100 µM | SK-MEL-28 > 100 µM | SK-MEL-2 > 100 µM | SK-OV-3 > 100 µM | SN12C > 100 µM | SNB-19 > 100 µM | SW-620 > 100 µM | TK-10 > 100 µM | UACC-257 > 100 µM

CCOC(=O)c1cn2c(n1)sc1cc(Cl)ccc12
inactive: ACHN 14.5 µM | HOP-62 18.1 µM | K562 2.86 µM | LOX IMVI 7.78 µM | M14 18.3 µM | Malme-3M 13.1 µM | NCI-H23 62.2 µM | OVCAR-3 14.1 µM | RXF 393 45 µM | SF-295 35.2 µM | SF-539 5.78 µM | SK-MEL-28 76.2 µM | SK-MEL-2 > 100 µM | SK-OV-3 52 µM | SN12C 11.4 µM | SNB-19 8.28 µM | SW-620 4.75 µM | TK-10 > 100 µM | UACC-257 26.7 µM

O=c1oc2ccccc2cc1-c1cn2ccccc2n1
inactive: ACHN 3.49 µM | HOP-62 3.24 µM | K562 10.2 µM | LOX IMVI 12.6 µM | M14 8.51 µM | Malme-3M 3.22 µM | NCI-H23 12.1 µM | OVCAR-3 4.16 µM | RXF 393 3.85 µM | SF-295 3.66 µM | SF-539 4.17 µM | SK-MEL-28 4.4 µM | SK-MEL-2 5 µM | SK-OV-3 4.01 µM | SN12C 4.6 µM | SNB-19 3.32 µM | SW-620 10.4 µM | TK-10 8.02 µM | UACC-257 3.89 µM

CC(CC(=O)O)(CC(=O)O)C(=O)O
inactive: ACHN > 100 µM | HOP-62 > 100 µM | K562 > 100 µM | LOX IMVI > 100 µM | M14 > 100 µM | Malme-3M > 100 µM | NCI-H23 > 100 µM | OVCAR-3 > 100 µM | RXF 393 > 100 µM | SF-295 > 100 µM | SF-539 > 100 µM | SK-MEL-28 > 100 µM | SK-MEL-2 > 100 µM | SK-OV-3 > 100 µM | SN12C > 100 µM | SNB-19 > 100 µM | SW-620 > 100 µM | TK-10 > 100 µM | UACC-257 > 100 µM
